{
  "source": "patent US9233954B2",
  "about": "“Organic amine salts of Azilsartan, preparation method and use thereof” (Jiangsu Hansoh Pharmaceutical Co., Ltd., priority 2011, dated 2016)",
  "test": "Hygroscopicity test",
  "type": "physicochemical",
  "conditions": "25° C.±1° C., RH 80%±2%, 24 h",
  "protocol": "1. A dried glass weighing bottle (Outer diameter […]) with a plug was put into an artificial climate box under the temperature of 25° C.±1° C. and relative humidity (RH) of 80%±2% the day before and then weighed precisely (m1).\n2. The testing sample was weighed precisely (m2) and lain into the weighing bottle. The thickness of the test sample was about 1 mm.\n3. The uncovered weighing bottle and its plug were placed under the above constant temperature and humidity conditions for 24 h.\n4. The weighing bottle was covered and weighed precisely (m3).\nCalculation formula: Percent of weight increase=(m3−m2)/(m2−m1)*100%\n5. Definition of the weight increase of the hygroscopicity\nDeliquescence: absorbing enough water to form liquid.\nHigh hygroscopicity: the weight increase of the hygroscopicity is no less than 15%\nHaving hygroscopicity: the weight increase of the hygroscopicity is between 15% and 2%\nSlight hygroscopicity: the weight increase of the hygroscopicity is between 2% and 0.2%\nNo or almost no hygroscopicity: the weight increase of the hygroscopicity is less than 0.2%",
  "data": [
    {"smiles": "CCOc1nc2cccc(C(=O)O)c2n1Cc1ccc(-c2ccccc2-c2noc(=O)[nH]2)cc1.CCOc1nc2cccc(C(=O)[O-])c2n1Cc1ccc(-c2ccccc2-c2noc(=O)[nH]2)cc1.C[N+](C)(C)CCO", "note": "[Example 2]", "values": [
      {"measurement": "Hygroscopicity (percent of weight increase)", "result": 0.02, "unit": "%"},
      {"measurement": "Conclusion (hygroscopic or not)", "setting": "listed as Example 2 Compound", "result": "No"},
      {"measurement": "Conclusion (hygroscopic or not)", "setting": "listed as example 2 compound", "result": "not hygroscopic"}
    ]}
  ]
}
